Results reported in patent US20240294572A1, “Antimicrobial Peptides” (priority 2021, published 2024).
In brackets after ≈: the same amount, converted by molar mass. Residues, ends and D or L forms follow the SMILES beside them. *: point of attachment. Myristoyl = CCCCCCCCCCCCCC(=O)*; Lauroyl = CCCCCCCCCCCC(=O)*; Decanoyl = CCCCCCCCCC(=O)*; Octanoyl = CCCCCCCC(=O)*; Hexanoyl = CCCCCC(=O)*

Experiments:
Type in all cases: cell-based
[1] = system: P. aeruginosa PAO1
Description: (§1) The antibacterial activity of peptides was evaluated using a standard broth microdilution protocol (Clinical Laboratories Standards Institute (CLSI): M07-A10. Methods for Dilution Antimicrobial Susceptibility Tests for Bacteria that grow aerobically; Approved Standard, Tenth Edition, 2015) with minor modifications as described (Mishra, et al. (2019) Proc. Natl. Acad. Sci., 116:13517-13522). In brief, peptides (10 μL per well) with 2-fold dilutions were made in 96-well polystyrene microplates. Subsequently, the logarithmic phase bacterial cultures (i.e., optical density at 600 nm ˜0.5) were diluted to 0.001 OD and aliquoted to 90 μL per well. The plates were incubated overnight at 37°° C. Bacterial controls were treated with water, and the wells containing only the TSB media were used as blank. Positive controls included the parent peptide LL-37 as well as KR12. Post incubation, the plates were read at 630 nm using ChroMate® 4300 Microplate Reader (Awareness Technology, FL).

[2] = system: S. aureus USA300 LAC; conditions: USA300
Description: as §1
(§2) To study the influence of medium conditions on the antimicrobial activity of peptides against S. aureus USA300, different pH, sodium chloride (NaCl), human sera were included into the antibacterial assays. Control experiments in TSB without any additions (pH 7.4) were set up in the same manner. In addition, antimicrobial activities of human LL-37, KR12, and C10-KR8d were compared in 10%, 50%, and 100% TSB as well as in TSB and MHB using E. coli ATCC 25922 and S. aureus USA300 LAC.

[3] = system: E. coli ATCC 25922
Description: as §1, §2

[4] = system: human red blood cells (hRBCs); conditions: red cells of human, 1 h
Description: Hemolytic assays of peptides were performed as described (Lakshmaiah, et al. (2020) Proc. Natl. Acad. Sci., 117:19446-19454). Briefly, human red blood cells (hRBCs) were obtained from UNMC Blood Bank. The cells were washed 3× with isotonic saline (0.9% NaCl) and diluted to 2% (v/v). Peptides at various concentrations were added to the 2% blood cells and incubated at 37° C. for 1 hour. Post-incubation, the plates were spun at 2000 rpm for 10 minutes; aliquots of the supernatant were carefully transferred to a fresh 96-well microplate. The amount of cells lysed is proportional to the hemoglobin released and was measured at 545 nm using a ChroMate® microplate reader (Awareness Technology, FL). The percent lysis was calculated by assuming 100% release when human blood cells were treated with 1% Triton™ X-100, and 0% release when incubated with PBS. The peptide concentration that caused 50% lysis of hRBCs is defined as HC50. The cell selectivity index (CSI) was calculated as the ratio between HC50 and the MIC of the corresponding peptide against MRSA.

[5] = system: Klebsiella pneumonia ATCC 13883; experiment: Antibacterial broth microdilution MIC
Description: as §1

## CCCCCC(=O)N[C@@H](CCCCN)C(=O)N[C@@H](CCCNC(=N)N)C(=O)N[C@H](C(=O)N[C@@H](Cc1c[nH]c2ccccc12)C(N)=O)[C@@H](C)CC [Peptide C6-KR4] (Hexanoyl-KRIW-NH2)
[1]
  MIC (μM) PA: >50 µM
[2]
  MIC (μM) SA: >50 µM
[3]
  MIC (μM) EC: >50 µM
[4]
  HC50: >200 µM
[5]
  MIC (μM) KP: >50 µM

## CCCCCCCC(=O)N[C@@H](CCCCN)C(=O)N[C@@H](CCCNC(=N)N)C(=O)N[C@H](C(=O)N[C@@H](Cc1c[nH]c2ccccc12)C(N)=O)[C@@H](C)CC [Peptide C8-KR4] (Octanoyl-KRIW-NH2)
[1]
  MIC (μM) PA: >50 µM
[2]
  MIC (μM) SA: >50 µM
[3]
  MIC (μM) EC: >50 µM
[4]
  HC50: >200 µM
[5]
  MIC (μM) KP: >50 µM

## CCCCCCCC(=O)N[C@@H](CCCCN)C(=O)N[C@@H](CCCNC(=N)N)C(=O)N[C@H](C(=O)N[C@@H](Cc1c[nH]c2ccccc12)C(=O)N[C@@H](CCC(N)=O)C(=O)N[C@@H](CCCNC(=N)N)C(=O)N[C@H](C(=O)N[C@@H](CCCCN)C(=O)N[C@@H](CC(=O)O)C(=O)N[C@@H](Cc1ccccc1)C(=O)N[C@@H](CC(C)C)C(=O)N[C@@H](CCCNC(=N)N)C(N)=O)[C@@H](C)CC)[C@@H](C)CC [Peptide C8-KR12] (Octanoyl-KRIWQRIKDFLR-NH2)
[1]
  MIC (μM) PA: 6.2 µM (≈ 11.1 µg/mL)
[2]
  MIC (μM) SA: 3.1 µM (≈ 5.53 µg/mL)
[3]
  MIC (μM) EC: 6.2 µM (≈ 11.1 µg/mL)
[4]
  HC50: <25 µM
[5]
  MIC (μM) KP: <6.2 µM

## CCCCCCCCCC(=O)N[C@@H](CCCCN)C(=O)N[C@@H](CCCNC(=N)N)C(=O)N[C@H](C(=O)N[C@@H](Cc1c[nH]c2ccccc12)C(=O)N[C@@H](CCC(N)=O)C(=O)N[C@@H](CCCNC(=N)N)C(N)=O)[C@@H](C)CC [Peptide C10-KR6] (Decanoyl-KRIWQR-NH2)
[1]
  MIC (μM) PA: 25 µM (≈ 26 µg/mL)
[2]
  MIC (μM) SA: 12.5 µM (≈ 13 µg/mL)
[3]
  MIC (μM) EC: 50 µM (≈ 52 µg/mL)
[4]
  HC50: >340 µM
[5]
  MIC (μM) KP: >50 µM

## CCCCCCCCCCCC(=O)N[C@@H](CCCCN)C(=O)N[C@@H](CCCNC(=N)N)C(=O)N[C@H](C(=O)N[C@@H](Cc1c[nH]c2ccccc12)C(=O)N[C@@H](CCC(N)=O)C(=O)N[C@@H](CCCNC(=N)N)C(N)=O)[C@@H](C)CC [Peptide C12-KR6] (Lauroyl-KRIWQR-NH2)
[1]
  MIC (μM) PA: 6.2 µM (≈ 6.62 µg/mL)
[2]
  MIC (μM) SA: 3.1 µM (≈ 3.31 µg/mL)
[3]
  MIC (μM) EC: 12.5 µM (≈ 13.3 µg/mL)
[4]
  HC50: 75 µM
[5]
  MIC (μM) KP: >50 µM

## CCCCCCCCCC(=O)N[C@@H](CCCCN)C(=O)N[C@@H](CCCNC(=N)N)C(=O)N[C@H](C(=O)N[C@@H](Cc1c[nH]c2ccccc12)C(=O)N[C@@H](CCC(N)=O)C(=O)N[C@@H](CCCNC(=N)N)C(=O)N[C@H](C(=O)N[C@@H](CCCCN)C(=O)N[C@@H](CC(=O)O)C(=O)N[C@@H](Cc1ccccc1)C(N)=O)[C@@H](C)CC)[C@@H](C)CC [Peptide C10-KR10] (Decanoyl-KRIWQRIKDF-NH2)
[2]
  MIC (μM) SA: 1.5 µM (≈ 2.31 µg/mL)
[3]
  MIC (μM) EC: 3.1 µM (≈ 4.78 µg/mL)
[4]
  HC50: 50 µM
[5]
  MIC (μM) KP: 6.2 µM (≈ 9.57 µg/mL)

## CCCCCCCCCCCCCC(=O)N[C@@H](CCCCN)C(=O)N[C@@H](CCCNC(=N)N)C(=O)N[C@H](C(=O)N[C@@H](Cc1c[nH]c2ccccc12)C(=O)N[C@@H](CCC(N)=O)C(=O)N[C@@H](CCCNC(=N)N)C(N)=O)[C@@H](C)CC [Peptide C14-KR6] (Myristoyl-KRIWQR-NH2)
[1]
  MIC (μM) PA: 6.2 µM (≈ 6.79 µg/mL)
[2]
  MIC (μM) SA: 3.1 µM (≈ 3.4 µg/mL)
[3]
  MIC (μM) EC: 12.5 µM (≈ 13.7 µg/mL)
[4]
  HC50: <25 µM
[5]
  MIC (μM) KP: >50 µM

## CCCCCC(=O)N[C@@H](CCCCN)C(=O)N[C@@H](CCCNC(=N)N)C(=O)N[C@H](C(=O)N[C@@H](Cc1c[nH]c2ccccc12)C(=O)N[C@@H](CCC(N)=O)C(=O)N[C@@H](CCCNC(=N)N)C(=O)N[C@H](C(=O)N[C@@H](CCCCN)C(=O)N[C@@H](CC(=O)O)C(=O)N[C@@H](Cc1ccccc1)C(N)=O)[C@@H](C)CC)[C@@H](C)CC [Peptide C6-KR10] (Hexanoyl-KRIWQRIKDF-NH2)
[1]
  MIC (μM) PA: 50 µM (≈ 74.3 µg/mL)
[2]
  MIC (μM) SA: 25 µM (≈ 37.2 µg/mL)
[3]
  MIC (μM) EC: 50 µM (≈ 74.3 µg/mL)
[4]
  HC50: >200 µM
[5]
  MIC (μM) KP: >50 µM

## CCCCCC(=O)N[C@@H](CCCCN)C(=O)N[C@@H](CCCNC(=N)N)C(=O)N[C@H](C(=O)N[C@@H](Cc1c[nH]c2ccccc12)C(=O)N[C@@H](CCC(N)=O)C(=O)N[C@@H](CCCNC(=N)N)C(N)=O)[C@@H](C)CC [Peptide C6-KR6] (Hexanoyl-KRIWQR-NH2)
[1]
  MIC (μM) PA: >50 µM
[2]
  MIC (μM) SA: >50 µM
[3]
  MIC (μM) EC: >50 µM
[4]
  HC50: >200 µM
[5]
  MIC (μM) KP: >50 µM

## CCCCCCCCCC(=O)N[C@@H](CCCCN)C(=O)N[C@@H](CCCNC(=N)N)C(=O)N[C@H](C(=O)N[C@@H](Cc1c[nH]c2ccccc12)C(=O)N[C@@H](CCC(N)=O)C(=O)N[C@@H](CCCNC(=N)N)C(=O)N[C@H](C(=O)N[C@@H](CCCCN)C(=O)N[C@@H](CC(=O)O)C(=O)N[C@@H](Cc1ccccc1)C(=O)N[C@@H](CC(C)C)C(=O)N[C@@H](CCCNC(=N)N)C(N)=O)[C@@H](C)CC)[C@@H](C)CC [Peptide C10-KR12] (Decanoyl-KRIWQRIKDFLR-NH2)
[1]
  MIC (μM) PA: 25 µM (≈ 45.3 µg/mL)
[2]
  MIC (μM) SA: 3.1 µM (≈ 5.62 µg/mL)
[3]
  MIC (μM) EC: >50 µM
[4]
  HC50: <25 µM
[5]
  MIC (μM) KP: 6.2 to 12.5 µM

## CCCCCCCCCCCCCC(=O)N[C@@H](CCCCN)C(=O)N[C@@H](CCCNC(=N)N)C(=O)N[C@H](C(=O)N[C@@H](Cc1c[nH]c2ccccc12)C(=O)N[C@@H](CCC(N)=O)C(=O)N[C@@H](CCCNC(=N)N)C(=O)N[C@H](C(=O)N[C@@H](CCCCN)C(N)=O)[C@@H](C)CC)[C@@H](C)CC [Peptide C14-KR8] (Myristoyl-KRIWQRIK-NH2)
[1]
  MIC (μM) PA: 6.2 µM (≈ 8.29 µg/mL)
[2]
  MIC (μM) SA: <1.5 µM
[3]
  MIC (μM) EC: 12.5 µM (≈ 16.7 µg/mL)
[4]
  HC50: <25 µM
[5]
  MIC (μM) KP: >50 µM

## CCCCCC(=O)N[C@@H](CCCCN)C(=O)N[C@@H](CCCNC(=N)N)C(=O)N[C@H](C(=O)N[C@@H](Cc1c[nH]c2ccccc12)C(=O)N[C@@H](CCC(N)=O)C(=O)N[C@@H](CCCNC(=N)N)C(=O)N[C@H](C(=O)N[C@@H](CCCCN)C(=O)N[C@@H](CC(=O)O)C(=O)N[C@@H](Cc1ccccc1)C(=O)N[C@@H](CC(C)C)C(=O)N[C@@H](CCCNC(=N)N)C(N)=O)[C@@H](C)CC)[C@@H](C)CC [Peptide C6-KR12] (Hexanoyl-KRIWQRIKDFLR-NH2)
[1]
  MIC (μM) PA: 12.5 µM (≈ 22 µg/mL)
[2]
  MIC (μM) SA: <1.5 µM
[3]
  MIC (μM) EC: 3.1 µM (≈ 5.44 µg/mL)
[4]
  HC50: 25 µM
[5]
  MIC (μM) KP: 6.2 µM (≈ 10.9 µg/mL)

## CCCCCCCCCC(=O)N[C@@H](CCCCN)C(=O)N[C@@H](CCCNC(=N)N)C(=O)N[C@H](C(=O)N[C@@H](Cc1c[nH]c2ccccc12)C(N)=O)[C@@H](C)CC [Peptide C10-KR4] (Decanoyl-KRIW-NH2)
[1]
  MIC (μM) PA: 12.5 µM (≈ 9.44 µg/mL)
[2]
  MIC (μM) SA: 12.5 µM (≈ 9.44 µg/mL)
[3]
  MIC (μM) EC: 50 µM (≈ 37.8 µg/mL)
[4]
  HC50: 150 µM
[5]
  MIC (μM) KP: >50 µM

## CCCCCCCCCCCC(=O)N[C@@H](CCCCN)C(=O)N[C@@H](CCCNC(=N)N)C(=O)N[C@H](C(=O)N[C@@H](Cc1c[nH]c2ccccc12)C(=O)N[C@@H](CCC(N)=O)C(=O)N[C@@H](CCCNC(=N)N)C(=O)N[C@H](C(=O)N[C@@H](CCCCN)C(=O)N[C@@H](CC(=O)O)C(=O)N[C@@H](Cc1ccccc1)C(N)=O)[C@@H](C)CC)[C@@H](C)CC [Peptide C12-KR10] (Lauroyl-KRIWQRIKDF-NH2)
[2]
  MIC (μM) SA: 1.5 µM (≈ 2.36 µg/mL)
[3]
  MIC (μM) EC: 6.2 µM (≈ 9.74 µg/mL)
[4]
  HC50: <25 µM
[5]
  MIC (μM) KP: 3.1 µM (≈ 4.87 µg/mL)
